The values below come from patent US7211584B2, “5-HT7 receptor ligands” (Laboratorios del Dr. Esteve, S.A., priority 2004, dated 2007).

The structures appear in SMILES notation. Where a name gives a salt, the structure may show the parent alone.

The target of the assay is T1, Human Serotonin Receptor, Subtype 7 (h5HT7) (Homo sapiens, UniProt P34969).
T1 construct: purchased PerkinElmer 6120512; host or cells: CHO cells (membranes)
T1 sequence (P34969 whole entry): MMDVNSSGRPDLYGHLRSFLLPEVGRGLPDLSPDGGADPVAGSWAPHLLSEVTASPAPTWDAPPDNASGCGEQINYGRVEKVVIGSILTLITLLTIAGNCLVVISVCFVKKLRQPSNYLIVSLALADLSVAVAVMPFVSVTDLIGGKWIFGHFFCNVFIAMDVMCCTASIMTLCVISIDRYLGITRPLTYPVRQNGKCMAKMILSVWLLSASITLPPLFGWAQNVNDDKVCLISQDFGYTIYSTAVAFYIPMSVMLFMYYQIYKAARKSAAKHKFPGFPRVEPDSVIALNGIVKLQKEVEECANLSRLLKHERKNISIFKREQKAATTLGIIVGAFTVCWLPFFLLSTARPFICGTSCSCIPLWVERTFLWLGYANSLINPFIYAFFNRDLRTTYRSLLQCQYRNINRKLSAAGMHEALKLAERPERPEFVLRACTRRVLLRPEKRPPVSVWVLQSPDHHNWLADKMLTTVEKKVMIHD
Nature of the assay: Radioligand binding, cloned human serotonin receptor subtype 7 (h5HT7) expressed in CHO cells, [125I]LSD. The note with it: h5HT7 in CHO cells on Flashplate; [125I]LSD 0.82 nM; room temperature 240 minutes; triplicate; read-out: 5-HT7 IC-50. Here is the method: Radioligand binding assays were performed using the Cloned Human Serotonin Receptor, Subtype 7 (h5HT7), expressed in CHO cells, coated on Flashplate (Basic FlashPlate Cat.: SMP200) from PerkinElmer (Cat.: 6120512). The protocol assay was essentially the recommended protocol in the Technical Data Sheet by PerkinEmer Life and Analytical Sciences. The Mass membrane protein/well was typically 12 μg and the Receptor/well was about 9–10 fmoles. The Flashplate were let equilibrate at room temperature for one hour before the addition of the components of the assay mixture. The binding buffer was: 50 mM Tris-HCl, pH 7.4, containing 10 mM MgCl2, 0.5 mM EDTA and 0.5% BSA. The radioligand was [^125I]LSD at a final concentration of 0.82 nM. Nonspecific binding was determined with 50 μM of Clozapine. The assay volume was 25 μl. TopSeal-A were applied onto Flashplate microplates and they were incubated at room temperature for 240 minutes in darkness. The radioactivity were quantified by liquid scintillation spectrophotometry (Wallac 1450 Microbeta Trilux) with a count delay of 4 minutes prior to counting and a counting time of 30 seconds per well. Competition binding data were analyzed by using the LIGAND program (Munson and Rodbard, LIGAND: A versatile, computerized approach for characterization of ligand-binding systems. Anal. Biochem. 107: 220–239, 1980) and assays were performed in triplicate determinations for each point.
In the case of `O=S(=O)(NCCCN1CCc2ccccc2C1)c1ccccc1` [Compound 35, N-[3-(3,4-Dihydro-1H-isoquinolin-2-yl)-propyl]-benzenesulfonamidehydrochloride], the IC50 is 136 nM. Next, `COc1cc2c(cc1OC)CN(CCCNS(=O)(=O)c1cc(Cl)ccc1Cl)CC2` [Compound 43, 2,5-Dichloro-N-[3-(6,7-dimethoxy-3,4-dihydro-1H-isoquinolin-2-yl)-propyl]-benzenesulfonamidehydrochloride]: 89.5 nM; `COc1cc2c(cc1OC)CN(CCCNS(=O)(=O)c1cc(Cl)c(F)cc1F)CC2` [Compound 48, 5-Chloro-N-[3-(6,7-dimethoxy-3,4-dihydro-1H-isoquinolin-2-yl)-propyl]-2,4-difluoro-benzenesulfonamide]: 64.8 nM. `O=S(=O)(NCCCN1CCc2ccccc2C1)c1cccc2ccccc12` [Compound 33, Naphthalene-1-sulfonic acid[3-(3,4-dihydro-1H-isoquinolin-2-yl)-propyl]-amide hydrochloride]: the IC50 turned out to be 384 nM. For `COc1cc(C)c(S(=O)(=O)NCCCN2CCc3ccccc3C2)c(C)c1C` [Compound 40, N-[3-(3,4-Dihydro-1H-isoquinolin-2-yl)-propyl]-4-methoxy-2,3,6-trimethyl-benzenesulfonamidehydrochloride] the value was 112 nM.
